From PubChem BioAssay (NCI)
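Method: 48-hour compound exposure of cells in 96-well plates, five concentrations, linear interpolation of endpoints. Definition used: TGI = concentration required for complete inhibition of growth.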

How the values were obtained:
Experiment in all cases: growth of human tumour cells (NCI), 48 h
786-0 renal = tested on: 786-0 renal
A498 renal = tested on: A498 renal
A549 NSCLC = tested on: A549 NSCLC
ACHN renal = tested on: ACHN renal
BT-549 breast = tested on: BT-549 breast
CAKI-1 renal = tested on: CAKI-1 renal
CCRF-CEM leukemia = tested on: CCRF-CEM leukemia
COLO 205 colon = tested on: COLO 205 colon
DU-145 prostate = tested on: DU-145 prostate
EKVX NSCLC = tested on: EKVX NSCLC
HCT-116 colon = tested on: HCT-116 colon
HCT-15 colon = tested on: HCT-15 colon
HL-60(TB) leukemia = tested on: HL-60(TB) leukemia
HOP-62 NSCLC = tested on: HOP-62 NSCLC
HOP-92 NSCLC = tested on: HOP-92 NSCLC
HS 578T breast = tested on: HS 578T breast
HT29 colon = tested on: HT29 colon
IGROV1 ovarian = tested on: IGROV1 ovarian
K-562 leukemia = tested on: K-562 leukemia
KM12 colon = tested on: KM12 colon
LOX IMVI melanoma = tested on: LOX IMVI melanoma
M14 melanoma = tested on: M14 melanoma
MALME-3M melanoma = tested on: MALME-3M melanoma
MCF7 breast = tested on: MCF7 breast
MDA-MB-231 breast = tested on: MDA-MB-231 breast
MDA-MB-435 = tested on: MDA-MB-435
MOLT-4 leukemia = tested on: MOLT-4 leukemia
NCI-H226 lung = tested on: NCI-H226 lung
NCI-H23 lung = tested on: NCI-H23 lung
NCI-H460 lung = tested on: NCI-H460 lung
NCI-H522 lung = tested on: NCI-H522 lung
NCI/ADR-RES ovarian = tested on: NCI/ADR-RES ovarian
OVCAR-3 ovarian = tested on: OVCAR-3 ovarian
OVCAR-4 ovarian = tested on: OVCAR-4 ovarian
OVCAR-5 ovarian = tested on: OVCAR-5 ovarian
OVCAR-8 ovarian = tested on: OVCAR-8 ovarian
PC-3 prostate = tested on: PC-3 prostate
RPMI-8226 leukemia = tested on: RPMI-8226 leukemia
RXF 393 renal = tested on: RXF 393 renal
SF-268 CNS = tested on: SF-268 CNS
SF-295 CNS = tested on: SF-295 CNS
SF-539 CNS = tested on: SF-539 CNS
SK-MEL-2 melanoma = tested on: SK-MEL-2 melanoma
SK-MEL-28 melanoma = tested on: SK-MEL-28 melanoma
SK-MEL-5 melanoma = tested on: SK-MEL-5 melanoma
SK-OV-3 ovarian = tested on: SK-OV-3 ovarian
SN12C renal = tested on: SN12C renal
SNB-19 CNS = tested on: SNB-19 CNS
SNB-75 CNS = tested on: SNB-75 CNS
SR leukemia = tested on: SR leukemia
SW-620 colon = tested on: SW-620 colon
T-47D breast = tested on: T-47D breast
TK-10 renal = tested on: TK-10 renal
U251 CNS = tested on: U251 CNS
UACC-257 melanoma = tested on: UACC-257 melanoma
UACC-62 melanoma = tested on: UACC-62 melanoma
UO-31 renal = tested on: UO-31 renal
HCC-2998 colon = tested on: HCC-2998 colon

Measured: TGI

O=[N+]([O-])C[C@@]12O[C@]3(O)C4C5CC(C6C5C3C61)C42 (some centres not stated)
not listed: HCC-2998 colon
> 100 µM: all other assays above

COc1cccc(CCNC(=O)Cc2ccccc2CCO)c1
not listed: LOX IMVI melanoma | MALME-3M melanoma | RPMI-8226 leukemia
> 100 µM: all other assays above
